Experiment: Phase one study part 2: multiple dose (28 days) plasma PK of free and total DGLA
Format: in vivo, human
Protocol: Multiple dose part two of the study comprised two cohorts (Cohorts five and six) of eight subjects each, who were administered multiple doses of study drug in the fasted state for 28 days. Subjects in Cohorts five and six received DS107G at 2000 or 4000 mg, respectively, or matching placebo once daily for 28 days. Cohort six was started after Cohort five's safety data were evaluated by the SMC. No interim analysis was planned. […]
In Part two of the study (Cohorts five and six), subjects were administered study drug (500-mg DS107G capsules or matching placebo capsules) once daily in the fasted state for 28 days. Subjects in Cohort five received study drug first and, if they tolerated the 2000-mg daily dose for the first 14 days, subjects in Cohort six were started on the 4000-mg daily dose for 28 days.
PK parameter was computed after correcting the dosed DGLA concentrations with baseline DGLA concentrations.

[1] = 2000 mg once daily, Day 1, 0 to 24 hours
[2] = 2000 mg once daily, Day 28, 0 to 24 hours
[3] = 2000 mg once daily, Day 28, 0 to 168 hours
[4] = 2000 mg once daily, Day 28: 0 to 24 hours
[5] = 4000 mg once daily, Day 1, 0 to 24 hours

CCCCC/C=C\C/C=C\C/C=C\CCCCCCC(=O)O [DS107G, Dihomo gamma linolenic acid]
free DGLA mean accumulation ratio (AR), AUC (2000 mg): ~3.3
free DGLA mean accumulation ratio (AR), Cmax (2000 mg): ~2.8
AUC0-24, mean, free DGLA, baseline-corrected plasma [1]: 4548.7 ng·h/mL
AUC0-24/Dose, mean, free DGLA, baseline-corrected plasma [1]: 2.27 h/kL
AUC0-24/Dose, mean, total DGLA, baseline-corrected plasma [1]: 149.09 h/kL
AUC0-inf, mean, free DGLA, baseline-corrected plasma [1]: 5955.6 ng·h/mL
AUC0-inf/Dose, mean, free DGLA, baseline-corrected plasma [1]: 2.98 h/kL
AUC0-inf/Dose, mean, total DGLA, baseline-corrected plasma [1]: 2080.61 h/kL
CL/F, mean, free DGLA, baseline-corrected plasma [1]: 0.5448 kL/h
Cmax, mean, free DGLA, baseline-corrected plasma [1]: 850.5 ng/mL
Cmax/Dose, mean, free DGLA, baseline-corrected plasma [1]: 0.425 kL⁻¹
Cmax/Dose, mean, total DGLA, baseline-corrected plasma [1]: 9.050 kL⁻¹
λz, mean, free DGLA, baseline-corrected plasma [1]: 0.2133 h⁻¹
λz, mean, total DGLA, baseline-corrected plasma [1]: 0.221 h⁻¹
AUC0-24, mean, free DGLA, baseline-corrected plasma [2]: 9248.1 ng·h/mL
AUC0-24/Dose, mean, free DGLA, baseline-corrected plasma [2]: 4.62 h/kL
AUC0-24/Dose, mean, total DGLA, baseline-corrected plasma [2]: 675.69 h/kL
AUC0-inf, mean, free DGLA, baseline-corrected plasma [2]: 10389.0 ng·h/mL
AUC0-inf/Dose, mean, free DGLA, baseline-corrected plasma [2]: 5.19 h/kL
AUC0-inf/Dose, mean, total DGLA, baseline-corrected plasma [2]: 2579.58 h/kL
CL/F, mean, free DGLA, baseline-corrected plasma [2]: 0.2002 kL/h
Cmax, mean, free DGLA, baseline-corrected plasma [2]: 1999.3 ng/mL
Cmax/Dose, mean, free DGLA, baseline-corrected plasma [2]: 1.000 kL⁻¹
Cmax/Dose, mean, total DGLA, baseline-corrected plasma [2]: 37.792 kL⁻¹
λz, mean, free DGLA, baseline-corrected plasma [2]: 0.1282 h⁻¹
λz, mean, total DGLA, baseline-corrected plasma [2]: 0.0199 h⁻¹
AUC0-24, mean, free DGLA, baseline-corrected plasma [3]: 9248.1 ng·h/mL
AUC0-24/Dose, mean, free DGLA, baseline-corrected plasma [3]: 4.62 h/kL
AUC0-24/Dose, mean, total DGLA, baseline-corrected plasma [3]: 675.69 h/kL
AUC0-inf, mean, free DGLA, baseline-corrected plasma [3]: 43024.8 ng·h/mL
AUC0-inf/Dose, mean, free DGLA, baseline-corrected plasma [3]: 21.51 h/kL
AUC0-inf/Dose, mean, total DGLA, baseline-corrected plasma [3]: 2513.91 h/kL
CL/F, mean, free DGLA, baseline-corrected plasma [3]: 0.0949 kL/h
Cmax, mean, free DGLA, baseline-corrected plasma [3]: 1999.3 ng/mL
Cmax/Dose, mean, free DGLA, baseline-corrected plasma [3]: 1.000 kL⁻¹
Cmax/Dose, mean, total DGLA, baseline-corrected plasma [3]: 37.792 kL⁻¹
λz, mean, free DGLA, baseline-corrected plasma [3]: 0.0250 h⁻¹
λz, mean, total DGLA, baseline-corrected plasma [3]: 0.0169 h⁻¹
% PTF (peak trough fluctuation), mean, free DGLA, steady-state baseline-corrected plasma [4]: 492.54%
% PTF (peak trough fluctuation), mean, total DGLA, steady-state baseline-corrected plasma [4]: 62.50%
AR(AUC) accumulation ratio, mean, free DGLA, steady-state baseline-corrected plasma [4]: 3.340
AR(AUC) accumulation ratio, mean, total DGLA, steady-state baseline-corrected plasma [4]: 7.991
AR(Cmax) accumulation ratio, mean, free DGLA, steady-state baseline-corrected plasma [4]: 2.796
AR(Cmax) accumulation ratio, mean, total DGLA, steady-state baseline-corrected plasma [4]: 5.156
CLss/F, mean, free DGLA, steady-state baseline-corrected plasma [4]: 0.2295 kL/h
CLss/F, mean, total DGLA, steady-state baseline-corrected plasma [4]: 0.0016 kL/h
Cavg, mean, free DGLA, steady-state baseline-corrected plasma [4]: 385.3 ng/mL
Cavg, mean, total DGLA, steady-state baseline-corrected plasma [4]: 56307.2 ng/mL
Cmin, mean, free DGLA, steady-state baseline-corrected plasma [4]: 100.8 ng/mL
Cmin, mean, total DGLA, steady-state baseline-corrected plasma [4]: 37933.3 ng/mL
Vzss/F, mean, free DGLA, steady-state baseline-corrected plasma [4]: 5.3096 kL
Vzss/F, mean, total DGLA, steady-state baseline-corrected plasma [4]: 0.0980 kL
tmin, median, free DGLA, steady-state baseline-corrected plasma [4]: 8.00 h
tmin, median, total DGLA, steady-state baseline-corrected plasma [4]: 1.50 h
free DGLA mean accumulation ratio (AR), AUC (4000 mg): ~1.6
free DGLA mean accumulation ratio (AR), Cmax (4000 mg): ~1.4
AUC0-24, mean, free DGLA, baseline-corrected plasma [5]: 11441.4 ng·h/mL
AUC0-24/Dose, mean, free DGLA, baseline-corrected plasma [5]: 2.86 h/kL
AUC0-24/Dose, mean, total DGLA, baseline-corrected plasma [5]: 114.05 h/kL
AUC0-inf, mean, free DGLA, baseline-corrected plasma [5]: 13900.3 ng·h/mL
AUC0-inf/Dose, mean, free DGLA, baseline-corrected plasma [5]: 3.48 h/kL
CL/F, mean, free DGLA, baseline-corrected plasma [5]: 0.3325 kL/h
Cmax, mean, free DGLA, baseline-corrected plasma [5]: 2641.5 ng/mL
Cmax/Dose, mean, free DGLA, baseline-corrected plasma [5]: 0.660 kL⁻¹
Cmax/Dose, mean, total DGLA, baseline-corrected plasma [5]: 6.967 kL⁻¹
λz, mean, free DGLA, baseline-corrected plasma [5]: 0.1504 h⁻¹
